target: recombinant Mcl-1 (residues 172-327) (Homo sapiens (Human), UniProt Q07820); experiment: Fluorescence polarization anisotropy competition assay (FITC-Bak or FITC-Bim BH3 peptide) with Mcl-1; assay type: binding; conditions: Table 2; Ki bins given in nM; FITC-Bak or FITC-Bim peptide competition; Ki converted from IC50; read-out: Ki for Inhibition of Mcl-1
Sequence (Q07820 172-327): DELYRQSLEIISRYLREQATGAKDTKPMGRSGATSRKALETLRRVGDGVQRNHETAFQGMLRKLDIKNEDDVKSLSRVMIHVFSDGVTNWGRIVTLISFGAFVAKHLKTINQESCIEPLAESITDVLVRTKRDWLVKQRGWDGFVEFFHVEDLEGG

| Compound | Ki |
| --- | --- |
| Cc1cc(OCCCc2c(C(=O)Nc3ccnc(C(=O)O)c3)[nH]c3c(-c4c(C)nn(C)c4C)c(Cl)ccc23)cc(C)c1Cl [I-180, 4-(6-chloro-3-(3-(4-chloro-3,5-dimethylphenoxy)propyl)-7-(1,3,5-trimethyl-1H-pyrazol-4-yl)-1H-indole-2-carboxamido)picolinic acid] | < 50 nM |
| Cc1cc(OCCCc2c3n(c4c(-c5c(C)nn(C)c5C)c(Cl)ccc24)[C@@H](C)CN(Cc2cccc(C(=O)O)c2)C3=O)cc(C)c1Cl [I-151, (S)-3-((7-chloro-10-(3-(4-chloro-3,5-dimethylphenoxy)propyl)-4-methyl-1-oxo-6-(1,3,5-trimethyl-1H-pyrazol-4-yl)-3,4-dihydropyrazino[1,2-a]indol-2(1H)-yl)methyl)benzoic acid] | < 50 nM |
| Cc1cc(OCCCc2c(C(=O)Nc3cc[nH]n3)[nH]c3c(-c4c(C)nn(C)c4C)cccc23)cc(C)c1Cl [I-313, 3-(3-(4-chloro-3,5-dimethylphenoxy)propyl)-N-(1H-pyrazol-3-yl)-7-(1,3,5-trimethyl-1H-pyrazol-4-yl)-1H-indole-2-carboxamide] | 501 to 999 nM |
| Cc1cc(C(=O)O)ccc1N1CCCn2c(c(CCCOc3cc(C)c(Cl)c(C)c3)c3ccc(Cl)c(-c4c(C)nn(C)c4C)c32)C1=O [I-97, 4-(8-chloro-11-(3-(4-chloro-3,5-dimethylphenoxy)propyl)-1-oxo-7-(1,3,5-trimethyl-1H-pyrazol-4-yl)-4,5-dihydro-1H-[1,4]diazepino[1,2-a]indol-2(3H)-yl)-3-methylbenzoic acid] | < 50 nM |
| Cc1cc(OCCCc2c(C(=O)NCC(=O)NS(=O)(=O)c3ccc(Oc4ccccc4)cc3)[nH]c3ccccc23)cc(C)c1Cl [I-8, 3-(3-(4-chloro-3,5-dimethylphenoxy)propyl)-N-(2-oxo-2-((4-phenoxyphenyl)sulfonamido)ethyl)-1H-indole-2-carboxamide] | 101 to 299 nM |
| Cc1cc(OCCCc2c3n(c4c(-c5c(C)nn(C)c5C)c(Cl)ccc24)CCCN(c2ccc(-c4nn[nH]n4)cc2)C3=O)cc(C)c1Cl [I-357, 2-(4-(2H-tetrazol-5-yl)phenyl)-8-chloro-1-(3-(4-chloro-3,5-dimethylphenoxy)propyl)-7-(1,3,5-trimethyl-1H-pyrazol-4-yl)-2,3,4,5-tetrahydro-1H-[1,4]diazepino[1,2-a]indol-1-one] | < 50 nM |
| Cc1cc(OCCCc2c3n(c4c(-c5c(C)nn(C)c5C)cccc24)CCCN(Cc2cc(C(=O)O)n(Cc4ccccc4)c2)C3=O)cc(C)c1Cl [I-77, 1-benzyl-4-((1-(3-(4-chloro-3,5-dimethylphenoxy)propyl)-1-oxo-7-(1,3,5-trimethyl-1H-pyrazol-4-yl)-4,5-dihydro-1H-[1,4]diazepino[1,2-a]indol-2(3H)-yl)methyl)-1H-pyrrole-2-carboxylic acid] | 51 to 100 nM |
| Cc1cc(OCCCc2c3n(c4c(-c5c(C)nn(C)c5C)cccc24)CCCN(Cc2cc(Br)cc(C(=O)O)c2)C3=O)cc(C)c1Cl [I-296, 3-bromo-5-((11-(3-(4-chloro-3,5-dimethylphenoxy)propyl)-1-oxo-7-(1,3,5-trimethyl-1H-pyrazol-4-yl)-4,5-dihydro-1H-[1,4]diazepino[1,2-a]indol-2(3H)-yl)methyl)benzoic acid] | 51 to 100 nM |

Other lines, results leading:

| Ki | Compound |
| --- | --- |
| < 50 nM | Cc1cc(OCCCc2c3n(c4c(-c5c(C)nn(C)c5C)cccc24)CCCN(Cc2ccc(C(=O)O)cc2)C3=O)cc(C)c1Cl [I-83, 4-((11-(3-(4-chloro-3,5-dimethylphenoxy)propyl)-1-oxo-7-(1,3,5-trimethyl-1H-pyrazol-4-yl)-4,5-dihydro-1H-[1,4]diazepino[1,2-a]indol-2(3H)-yl)methyl)benzoic acid] |
| < 50 nM | Cc1cc(OCCCc2c3n(c4c(-c5c(C)nn(C)c5C)c(Cl)ccc24)CCCN(c2ncc(C(=O)O)s2)C3=O)cc(C)c1Cl [I-358, 2-(8-chloro-11-(3-(4-chloro-3,5-dimethylphenoxy)propyl)-1-oxo-7-(1,3,5-trimethyl-1H-pyrazol-4-yl)-4,5-dihydro-1H-[1,4]diazepino[1,2-a]indol-2(3H)-yl)thiazole-5-carboxylic acid] |
| < 50 nM | Cc1ccncc1-c1cc(C(=O)O)cc(N2CCCn3c(c(CCCOc4cc(C)c(Cl)c(C)c4)c4ccc(Cl)c(-c5c(C)nn(C)c5C)c43)C2=O)c1 [I-234, 3-(8-chloro-11-(3-(4-chloro-3,5-dimethylphenoxy)propyl)-1-oxo-7-(1,3,5-trimethyl-1H-pyrazol-4-yl)-4,5-dihydro-1H-[1,4]diazepino[1,2-a]indol-2(3H)-yl)-5-(4-methylpyridin-3-yl)benzoic acid] |
| < 50 nM | Cc1cc(OCCCc2c3n(c4c(-c5c(C)nn(C)c5C)c(Cl)ccc24)CCCN(Cc2ccc(C(=O)NS(=O)(=O)c4ccc(OCc5cccnc5)cc4)cc2)C3=O)cc(C)c1Cl [I-310, 4-((8-chloro-11-(3-(4-chloro-3,5-dimethylphenoxy)propyl)-1-oxo-7-(1,3,5-trimethyl-1H-pyrazol-4-yl)-4,5-dihydro-1H-[1,4]diazepino[1,2-a]indol-2(3H)-yl)methyl)-N-((4-(pyridin-3-ylmethoxy)phenyl)sulfonyl)benzamide] |
| < 50 nM | Cc1cc(OCCCc2c(C(=O)N3CCc4ccc(C(=O)O)cc43)[nH]c3c(-c4c(C)nn(C)c4C)c(Cl)ccc23)cc(C)c1Cl [I-192, 1-(6-chloro-3-(3-(4-chloro-3,5-dimethylphenoxy)propyl)-7-(1,3,5-trimethyl-1H-pyrazol-4-yl)-1H-indole-2-carbonyl)indoline-6-carboxylic acid] |
| < 50 nM | Cc1cc(OCCCc2c3n(c4c(-c5c(C)nn(C)c5C)c(Cl)ccc24)CCCN(c2cc(C(=O)O)cc4c2c(Br)cn4C)C3=O)cc(C)c1Cl [I-256, 3-bromo-4-(8-chloro-11-(3-(4-chloro-3,5-dimethylphenoxy)propyl)-1-oxo-7-(1,3,5-trimethyl-1H-pyrazol-4-yl)-4,5-dihydro-1H-[1,4]diazepino[1,2-a]indol-2(3H)-yl)-1-methyl-1H-indole-6-carboxylic acid] |
| < 50 nM | Cc1cc(OCCCc2c3n(c4c(-c5c(C)nn(C)c5C)c(Cl)ccc24)CC(C)CN(Cc2cccc(C(=O)O)c2)C3=O)cc(C)c1Cl (centres unmarked) [I-135, 3-((8-chloro-11-(3-(4-chloro-3,5-dimethylphenoxy)propyl)-4-methyl-1-oxo-7-(1,3,5-trimethyl-1H-pyrazol-4-yl)-4,5-dihydro-1H-[1,4]diazepino[1,2-a]indol-2(3H)-yl)methyl)benzoic acid] |
| < 50 nM | Cc1cc(OCCCc2c(C(=O)Nc3cc(C(=O)O)cc(N4CCN(C)CC4)c3)[nH]c3c(-c4c(C)nn(C)c4C)c(Cl)ccc23)cc(C)c1Cl [I-207, 3-(6-chloro-3-(3-(4-chloro-3,5-dimethylphenoxy)propyl)-7-(1,3,5-trimethyl-1H-pyrazol-4-yl)-1H-indole-2-carboxamido)-5-(4-methylpiperazin-1-yl)benzoic acid] |
| < 50 nM | Cc1cc(OCCCc2c(C(=O)N[C@@H]3CCC[C@@H](C(=O)O)C3)[nH]c3c(-c4c(C)nn(C)c4C)c(Cl)ccc23)cc(C)c1Cl [I-322, (1R,3R)-3-(6-chloro-3-(3-(4-chloro-3,5-dimethylphenoxy)propyl)-7-(1,3,5-trimethyl-1H-pyrazol-4-yl)-1H-indole-2-carboxamido)cyclohexane-1-carboxylic acid] |
